The numbers were not newly measured in article PMC6974622, “DeepMalaria: Artificial Intelligence Driven Discovery of Potent Antiplasmodials” (Frontiers in Pharmacology, 2020), which cites them from elsewhere.

*1 amine or outer side, *2 acyl side, *3 side chain or, on linkers, in order; H or OH if unused. Where a SMILES comes first, the peptide text is derived from it. Bridges are numbered along the chain shown (N, C = ends). Roman numbers before positions name the chains, in order. [ ]: non-standard residue; d: D form. Actinocin(1to9) = Cc1c2oc3c(C)ccc(C(=O)[*:2])c3nc-2c(C(=O)[*:1])c(N)c1=O; Actinocin(9to1) = Cc1c2oc3c(C)ccc(C(=O)[*:1])c3nc-2c(C(=O)[*:2])c(N)c1=O; NMeV = CN[C@H](C(=O)O)C(C)C; Sar = CNCC(=O)O

One data set relates to 3D7. Set-up: unit not given here. The note with it: cited from earlier work.
Regarding `CC1=CC(=C(c2ccc(N)cc2)c2ccc(N)cc2)C=CC1=N.Cl` [Basic fuchsin], the 3D7 is reported as 96.3.
Turning to Tolonium chloride, the 3D7 is recorded as 99.5.
`CNCCCC12CCC(c3ccccc31)c1ccccc12` [Maprotiline]: the 3D7 is on record as 62.7.
In the case of `CN(C)c1ccc(C(=C2C=CC(=[N+](C)C)C=C2)c2ccccc2)cc1` [Malachite green], the 3D7 is listed as 86.9.
As for `CC[C@]1(O)C[C@@H]2CN(CCc3c([nH]c4ccccc34)[C@@](C(=O)OC)(c3cc4c(cc3OC)N(C)[C@H]3[C@@](O)(C(N)=O)[C@H](O)[C@]5(CC)C=CCN6CC[C@]43[C@@H]65)C2)C1` [Vindesine], the 3D7 is recorded as 81.9.
As for `CN1CCN(CCCN2c3ccccc3Sc3ccc(Cl)cc32)CC1` [Prochlorperazine edisylate], the 3D7 is reported as 73.3.
With `CC[C@H](C)[C@@H]1NC(=O)[C@@H](NC(=O)c2c3nc4c(C(=O)N[C@@H]5C(=O)N[C@@H](C(C)C)C(=O)N6CCC[C@H]6C(=O)N(C)CC(=O)N(C)[C@@H](C(C)C)C(=O)O[C@@H]5C)ccc(C)c4oc-3c(C)c(=O)c2N)[C@@H](C)OC(=O)[C@H](C(C)C)N(C)C(=O)CN(C)C(=O)[C@@H]2CCCN2C1=O` [Cactinomycin] (I: TIP[Sar][NMeV] / II: TVP[Sar][NMeV]; ester I:1-I:C, II:1-II:C; linker I:N-II:N via Actinocin(1to9)), the 3D7 is on record as 99.

Still in this data set, the particulars now being: repurposing dataset, 179 approved drugs; ref https://www.nature.com/articles/nchembio806; cited from earlier work.
On to `CNC(=O)Oc1ccc2c(c1)[C@]1(C)CCN(C)[C@@H]1N2C` [Eserine], for which the 3D7 is reported as 79.2.
As for `Cc1cc(N)c2ccccc2[n+]1CCCCCCCCCC[n+]1c(C)cc(N)c2ccccc21` [Dequalinium chloride], the 3D7 is reported as 97.6.
For `C1CCC(C(CC2CCCCN2)C2CCCCC2)CC1.O=C(O)/C=C\C(=O)O` (centres unmarked) [Perhexilline maleate], the 3D7 was 97.5.
With `CN(Cc1cnc2nc(N)nc(N)c2n1)c1ccc(C(=O)N[C@@H](CCC(=O)O)C(=O)O)cc1` [Methotrexate], the 3D7 is on record as 98.4.
For the molecule `CCOc1ccc2nc3cc(N)ccc3c(N)c2c1` [Ethacridine lactate], the 3D7 was 96.2.
Take `CCCC(C(=O)OCCN(CC)CC)(c1ccccc1)c1ccccc1` [Proadifen]: the 3D7 is 85.9.
`CCCCOc1ccc(CC(=O)NO)cc1` [Bufexamac]: the 3D7 is 93.2.
With `O.O=C(O)c1cc(O)c2c(c1)[O][Bi][O]2` [Bismuth gallate], the 3D7 is listed as 56.5.
Consider `CCN1/C(=C/C=C/C=C/c2sc3ccccc3[n+]2CC)Sc2ccccc21` [Dithiazanine iodide], for which the 3D7 is 98.
Consider `O=c1oc2c(O)c(O)cc3c(=O)oc4c(O)c(O)cc1c4c23` [Ellagic acid], for which the 3D7 is on record as 87.1.
In the case of `OC(c1cc(C(F)(F)F)nc2c(C(F)(F)F)cccc12)C1CCCCN1` (centres unmarked) [Mefloquine], the 3D7 was 97.7.
For `[Cl][Mn][Cl]` [Manganese chloride], the 3D7 is given as 94.1.
As to `CC[C@]1(O)C[C@@H]2CN(CCc3c([nH]c4ccccc34)[C@@](C(=O)OC)(c3cc4c(cc3OC)N(C)[C@H]3[C@@](O)(C(=O)OC)[C@H](OC(C)=O)[C@]5(CC)C=CCN6CC[C@]43[C@@H]65)C2)C1` [Vinblastine], the 3D7 was 66.7.
For the molecule `C[C@@H]1CC[C@H]2[C@@H](C)C(=O)O[C@@H]3O[C@@]4(C)CC[C@@H]1[C@]32OO4` [Artemisinin], the 3D7 was 99.1.
Turning to `Nc1c2ccccc2nc2ccccc12` [Aminacrine], the 3D7 was 97.6.
In the case of Meclocycline, the 3D7 is 68.7.
As for `CCC1=C[C@@H]2CN(C1)Cc1c([nH]c3ccccc13)[C@@](C(=O)OC)(c1cc3c(cc1OC)N(C)[C@H]1[C@@](O)(C(=O)OC)[C@H](OC(C)=O)[C@]4(CC)C=CCN5CC[C@]31[C@@H]54)C2` [Vinorelbine], the 3D7 is given as 97.7.
For `N=C(N)c1ccc(OCCCCCOc2ccc(C(=N)N)cc2)cc1` [Pentamidine isethionate], the 3D7 is reported as 99.1.
Take `CCOC(=O)C1=C(COCCN)NC(C)=C(C(=O)OC)C1c1ccccc1Cl` (centres unmarked) [Amlodipine besylate]: the 3D7 was 68.2.
`COC(=O)[C@@H]1c2cc3c(c(O)c2[C@@H](O[C@@H]2O[C@@H](C)[C@H](OC)[C@@](C)(OC)[C@H]2OC)C[C@]1(C)O)C(=O)c1c(O)cc2c(c1C3=O)O[C@@H]1O[C@@]2(C)[C@H](O)[C@@H](N(C)C)[C@@H]1O` [Nogalamycin]: the 3D7 is 85.3.
Consider `COc1cccc2c1C(=O)c1c(O)c3c(c(O)c1C2=O)C[C@@](O)(C(=O)CO)C[C@@H]3O[C@H]1C[C@H](N)[C@@H](O)[C@H](C)O1` [Epirubicin], for which the 3D7 was 98.4.
For the molecule Brilliant green, the 3D7 is 93.5.
With `OCCN1CCN(CCCN2c3ccccc3Sc3ccc(Cl)cc32)CC1` [Perphenazine], the 3D7 is reported as 85.6.
On to `C[N+](C)(C)CCCCCCCCCC[N+](C)(C)C` [Decamethonium bromide], for which the 3D7 is 54.8.
In the case of `C=Cc1c(C)c2cc3nc(cc4[nH]c(cc5nc(cc1[nH]2)C(C)=C5CCC(=O)O)c(CCC(=O)OC)c4C)[C@@]1(C)C3=CC=C(C(=O)OC)[C@H]1C(=O)OC` [Verteporfin], the 3D7 is on record as 95.4.
For `Fc1ccc(C(c2ccccc2)(c2ccccc2F)n2ccnc2)cc1` (centres unmarked) [Flutrimazole], the 3D7 was 85.2.
As to `CN(C)C(=O)C(CCN1CCC(O)(c2ccc(Cl)cc2)CC1)(c1ccccc1)c1ccccc1` [Loperamide], the 3D7 is listed as 97.7.
On to `CC[C@@]1(O)C[C@H](O[C@H]2C[C@H](N(C)C)[C@H](O[C@H]3C[C@H](O)[C@H](O[C@H]4CCC(=O)[C@H](C)O4)[C@H](C)O3)[C@H](C)O2)c2c(cc3c(c2O)C(=O)c2c(O)cccc2C3=O)[C@H]1C(=O)OC` [Aclarubicin], for which the 3D7 is reported as 99.6.
Regarding `CC[C@H]1OC(=O)[C@H](C)[C@@H](O[C@H]2C[C@@](C)(OC)[C@@H](O)[C@H](C)O2)[C@H](C)[C@@H](O[C@@H]2O[C@H](C)C[C@H](N(C)C)[C@H]2O)[C@](C)(O)C[C@@H](C)CN(C)[C@H](C)[C@@H](O)[C@]1(C)O` [Azithromycin], the 3D7 is given as 80.2.
For `CCCCCCCCNC(C)C(O)c1ccc(SC(C)C)cc1` (centres unmarked) [Suloctidil], the 3D7 is given as 97.3.
For the molecule `CCCCCCCCCCCC[N+](C)(C)CCOc1ccccc1` [Domiphen bromide], the 3D7 is 98.3.
On to `Nc1nc(N)c2nc(-c3ccccc3)c(N)nc2n1` [Triamterene], for which the 3D7 is reported as 79.4.
As to `N[C@@H](Cc1ccc(N(CCCl)CCCl)cc1)C(=O)O` [Melphalan], the 3D7 was 59.5.
With `CCN(CC)CCOc1ccc2c(c1)C(=O)c1cc(OCCN(CC)CC)ccc1-2` [Tilorone], the 3D7 is 98.9.
As for `COc1ccc(C[C@H](N)C(=O)N[C@H]2[C@@H](O)[C@H](n3cnc4c(N(C)C)ncnc43)O[C@@H]2CO)cc1` [Puromycin], the 3D7 is on record as 98.9.
Turning to `N=C(N)N/N=C/c1c(Cl)cccc1Cl` [Guanabenz acetate], the 3D7 was 92.7.
On to `CCOC(=O)NC1=C(N2CC2)C(=O)C(NC(=O)OCC)=C(N2CC2)C1=O` [Diaziquone], for which the 3D7 is on record as 97.3.
In the case of `O=C1[O][Pt]2([NH][C@@H]3CCCC[C@H]3[NH]2)[O]C1=O` [Oxaliplatin], the 3D7 was 55.4.
For the molecule `CN(C)CCOC(C)(c1ccccc1)c1ccc(Cl)cc1` (centres unmarked) [Chlorphenoxamine], the 3D7 is reported as 90.8.
As for `CC/C(=C(\c1ccccc1)c1ccc(OCCN(C)C)cc1)c1ccccc1` [Tamoxifen], the 3D7 was 97.5.
In the case of `Nc1nc(N)c2nc(CNc3ccc(C(=O)N[C@@H](CCC(=O)O)C(=O)O)cc3)cnc2n1` [Aminopterin], the 3D7 is 95.7.
For `CC(C)c1nc(CN(C)C(=O)N[C@H](C(=O)N[C@@H](Cc2ccccc2)C[C@H](O)[C@H](Cc2ccccc2)NC(=O)OCc2cncs2)C(C)C)cs1` [Ritonavir], the 3D7 is listed as 84.9.
Turning to `CCC(=O)O[C@]1(C(=O)CCl)[C@@H](C)C[C@H]2[C@@H]3CCC4=CC(=O)C=C[C@]4(C)[C@@]3(F)[C@@H](O)C[C@@]21C` [Clobetasol propionate], the 3D7 was 86.
For the molecule `Cc1c2oc3c(C)ccc(C(=O)N[C@@H]4C(=O)N[C@H](C(C)C)C(=O)N5CCC[C@H]5C(=O)N(C)CC(=O)N(C)[C@@H](C(C)C)C(=O)O[C@@H]4C)c3nc-2c(C(=O)N[C@@H]2C(=O)N[C@H](C(C)C)C(=O)N3CCC[C@H]3C(=O)N(C)CC(=O)N(C)[C@@H](C(C)C)C(=O)O[C@@H]2C)c(N)c1=O` [Dactinomycin] (I: T[dV]P[Sar][NMeV] / II: T[dV]P[Sar][NMeV]; ester I:1-I:C, II:1-II:C; linker I:N-II:N via Actinocin(9to1)), the 3D7 is 99.2.
In the case of `CO[C@@H]1[C@H](O)C[C@@H](O[C@@H]2C[C@H](Oc3cc4cc5c(c(O)c4c(O)c3C)C(=O)[C@@H](O[C@H]3C[C@@H](O[C@H]4C[C@@H](O[C@H]6C[C@](C)(O)[C@@H](OC(C)=O)[C@H](C)O6)[C@H](O)[C@@H](C)O4)[C@H](O)[C@@H](C)O3)[C@H]([C@H](OC)C(=O)[C@@H](O)[C@@H](C)O)C5)O[C@H](C)[C@@H]2OC(C)=O)O[C@@H]1C` [Chromomycin A3], the 3D7 is 98.4.
On to Gramicidin A, for which the 3D7 is reported as 98.5.
Take `CN1C[C@H](CNC(=O)OCc2ccccc2)C[C@@H]2c3cccc4c3c(cn4C)C[C@H]21` [Metergoline]: the 3D7 is 85.9.
Consider `Fc1ccc([C@@H]2CCNC[C@H]2COc2ccc3c(c2)OCO3)cc1` [Paroxetine], for which the 3D7 is 85.4.
Turning to `CN(C)c1ccc2nc3ccc(=[N+](C)C)cc-3sc2c1` [Methylene blue], the 3D7 is reported as 98.
With `C=CC[N+]1([C@H]2C[C@H]3[C@@H]4CC[C@H]5C[C@H](O)[C@@H](N6CCOCC6)C[C@]5(C)[C@H]4CC[C@]3(C)[C@H]2OC(C)=O)CCCC1` [Rocuronium bromide], the 3D7 was 52.6.
Turning to `N=C(N)NC(=O)c1nc(Cl)c(N)nc1N` [Amiloride], the 3D7 was 73.2.
In the case of `S=c1[nH]cnc2nc[nH]c12` [Mercaptopurine], the 3D7 is on record as 91.8.
With Atovaquone, the 3D7 was 97.
Consider `CO[C@@H]1[C@H](OC(=O)NC(=O)CCl)CC[C@]2(CO2)[C@H]1[C@@]1(C)O[C@@H]1CC=C(C)C` [TNP-470], for which the 3D7 is 67.
As for `CCCCCCCCCCCCCCCCOP(=O)([O-])OCC[N+](C)(C)C` [Miltefosine], the 3D7 is on record as 99.5.
